{"source": "paper PMC8802618", "about": "(ACS infectious diseases, 2021)", "key": {"[1]": {"conditions": "single oral dose as low as 20 mg/kg; cited from earlier work"}, "[2]": {"test_system": "Chloroquine-Sensitive (NF54) strain of P. falciparum", "conditions": "parent compound; cited from earlier work"}, "[3]": {"conditions": "cited from earlier work"}, "[4]": {"test_system": "Chloroquine-Resistant (K1) strain of P. falciparum", "conditions": "parent compound; cited from earlier work"}, "[5]": {"test_system": "P. falciparum parasites harboring mutations in the Kelch protein, K13", "conditions": "cited from earlier work"}, "[6]": {"conditions": "cited from earlier work", "remark": "listed apart in the source"}, "[7]": {"test_system": "Chloroquine-Resistant (K1) strain of P. falciparum", "format": "cell-based", "conditions": "for IC50 K1: 72 h [3H]-hypoxanthine incorporation, mean of two biological replicates"}, "[8]": {"test_system": "Chloroquine-Sensitive (NF54) strain of P. falciparum", "format": "cell-based", "conditions": "72 h [3H]-hypoxanthine incorporation; mean of two biological replicates"}}, "note": "Like-named read-outs stand apart in the source and are kept apart here.", "data": [{"smiles": "c1cc([C@H]2CC[C@]3(CC2)OO[C@]2(O3)C3CC4CC(C3)CC2C4)ccc1OCCN1CCOCC1", "note": "[compound 2]", "values": [{"measurement": "cure rate", "setting": "[1]", "result": 100, "unit": "%"}, {"measurement": "IC50 NF54", "setting": "[2]", "result": 1.9, "unit": "ng/mL"}, {"measurement": "safety", "setting": "[3]; up to a dose of 1600 mg", "result": "good safety properties"}, {"measurement": "IC50 K1", "setting": "[4]", "result": 1.6, "unit": "ng/mL"}, {"measurement": "activity against K13 mutant parasites", "setting": "[5]", "result": "active"}]}, {"smiles": "C[C@H]1[C@@H](O)O[C@@H]2O[C@@]3(C)CC[C@H]4[C@H](C)CC[C@@H]1[C@@]24OO3", "note": "[dihydroartemisinin]", "values": [{"measurement": "in vivo half-life", "setting": "[6]", "result": "~ 2 h"}]}, {"smiles": "[O-][N+]1(CCOc2ccc(C3CCC4(CC3)OOC3(O4)C4CC5CC3CC(O)(C5)C4)cc2)CCOCC1", "note": "(stereo not shown) [compound 11]", "values": [{"measurement": "IC50 K1", "setting": "[7]", "result": ">100/>100 ng/mL"}, {"measurement": "IC50 NF54", "setting": "[8]", "result": ">100/>100 ng/mL"}]}, {"smiles": "[O-][N+]1(CCOc2ccc(C3CCC4(CC3)OOC3(O4)C4CC5CC(C4)CC3C5)cc2)CCOCC1", "note": "(stereo not shown) [compound 8]", "values": [{"measurement": "IC50 K1", "setting": "[7]", "result": 1.4, "unit": "ng/mL"}, {"measurement": "in vitro activity against P. falciparum relative to parent 2", "setting": "[7]; K1 and NF54 strains, Table 1", "result": "comparable to 2"}, {"measurement": "IC50 NF54", "setting": "[8]", "result": 2.3, "unit": "ng/mL"}, {"measurement": "relative area under the plasma concentration versus time curve (AUC) of metabolites", "setting": "[3]; human, in vivo", "result": "comparatively lower AUC values"}]}, {"smiles": "CC(C)(N)CNC(=O)C[C@H]1CC[C@]2(CC1)OO[C@]1(O2)C2CC3CC(C2)CC1C3", "note": "[Arterolane]", "values": [{"measurement": "in vivo half-life", "setting": "[6]; in vivo", "result": "2 to 4", "unit": "h"}]}]}
